In patent publication US20100323990A1, “SHIP 1 MODULATOR PRODRUGS” (THE UNIVERSITY OF BRITISH COLUMBIA, priority 2006, published 2010):

Tested on: J774.1a macrophage cells
Test: Macrophage TNF-α production (Assay 2); note: key: a ‘+’ indicates a positive result for desired activity; a ‘−’ indicates a negative result for desired activity
Assay type: cell-based
Details: 10 μg/mL test compound, 100 ng/mL LPS, supernatants after 2 hr and 5 hr
Outline: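 J774.1a macrophages pretreated 40 min with 10 μg/mL compound, then LPS (100 ng/mL for TNF-α); TNF-α by ELISA in supernatants at 2 and 5 h, NO by Griess at 24 h. Mast cells IgE-loaded (anti-DNP), compound 30 min, DNP-HSA challenge; calcium flux by fura-2 spectrofluorometry, signalling by immunoblot.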

Row | Compound | Assay 2: Macrophage TNF-α production, desired activity
1 | Cc1cc(O)c(O)c2c1[C@]1(C)CCC3C(C)(C)CCC[C@]3(C)[C@H]1C2 (some centres unmarked) [AQX-016A] | +
2 | Cc1cc(O)cc2c1[C@]1(C)CCC3C(C)(C)CCC[C@]3(C)[C@H]1C2 (some centres unmarked) [Compound 100] | +
